From patent US20090291977A1, “Chromane Derivatives Useful As Acid Pump Antagonists” (priority 2004, published 2009)

Target: T1, Porcine gastric H+/K+-ATPase (Sus scrofa, UniProt P19156)
T1 construct: The gastric vesicles were collected from interface on 0.25 M sucrose layer containing 7% Ficoll; from tissue; host or cells: mucous membrane of fresh porcine stomachs (gastric vesicles)
Assay: Ion-leaky porcine gastric H+/K+-ATPase inhibition
Assay type: biochemical
Conditions: ion-leaky vesicles, 5 mM KCl, pH 6.4, 37° C., 30 minutes
Method: The porcine gastric vesicles for Porcine gastric H^+/K^+-ATPase inhibition assays were prepared from mucous membrane in fresh porcine stomachs by homogenization with a tight-fitted polytetrafluoroethylene (Teflone®) homogenizer in 0.25 M sucrose at 4° C. The crude pellet was removed with centrifugation at 20,000 g for 30 min. Then supernatant was centrifuged at 100,000 g for 30 min. The resulting pellet was re-suspended in 0.25 M sucrose, and then subjected to density gradient centrifugation at 132,000 g for 90 min. The gastric vesicles were collected from interface on 0.25 M sucrose layer containing 7% Ficoll™ PM400(Amersham Biosciences). This procedure was performed in a cold room.
Ion-leaky porcine gastric H^+/K^+-ATPase-inhibition was measured according to the modified method described in Biochemical Pharmacology, 1988, 37, 2231-2236.
The isolated vesicles were lyophilized, and then kept in deep-freezer until use. For enzyme assay, lyophilized vesicles were reconstituted with 3 mM MgSO4 containing 40 mM Bis-tris (pH 6.4 at 37° C.).
Enzyme reaction was performed incubating 5 mM KCl, 3 mM Na2ATP, 3 mM MgSO4 and 1.0 μg of reconstituted vesicles for 30 minutes at 37° C. in a final 60 μl of reaction mixture (40 mM Bis-tris, pH 6.4) with or without the test compound. Enzyme reaction was stopped by adding 10% sodium dodecyl sulphate (SDS). Released inorganic phosphate from ATP was detected by incubation with mixture of 1 part of 35 mM ammonium molybdate tetrahydrate in 15 mM Zinc acetate hydrate and 4 parts of 10% ascorbic acid (pH 5.0), resulting in phosphomolybdate, which has optical density at 750 nm.

T1 sequence (P19156 2-1034 limits assumed): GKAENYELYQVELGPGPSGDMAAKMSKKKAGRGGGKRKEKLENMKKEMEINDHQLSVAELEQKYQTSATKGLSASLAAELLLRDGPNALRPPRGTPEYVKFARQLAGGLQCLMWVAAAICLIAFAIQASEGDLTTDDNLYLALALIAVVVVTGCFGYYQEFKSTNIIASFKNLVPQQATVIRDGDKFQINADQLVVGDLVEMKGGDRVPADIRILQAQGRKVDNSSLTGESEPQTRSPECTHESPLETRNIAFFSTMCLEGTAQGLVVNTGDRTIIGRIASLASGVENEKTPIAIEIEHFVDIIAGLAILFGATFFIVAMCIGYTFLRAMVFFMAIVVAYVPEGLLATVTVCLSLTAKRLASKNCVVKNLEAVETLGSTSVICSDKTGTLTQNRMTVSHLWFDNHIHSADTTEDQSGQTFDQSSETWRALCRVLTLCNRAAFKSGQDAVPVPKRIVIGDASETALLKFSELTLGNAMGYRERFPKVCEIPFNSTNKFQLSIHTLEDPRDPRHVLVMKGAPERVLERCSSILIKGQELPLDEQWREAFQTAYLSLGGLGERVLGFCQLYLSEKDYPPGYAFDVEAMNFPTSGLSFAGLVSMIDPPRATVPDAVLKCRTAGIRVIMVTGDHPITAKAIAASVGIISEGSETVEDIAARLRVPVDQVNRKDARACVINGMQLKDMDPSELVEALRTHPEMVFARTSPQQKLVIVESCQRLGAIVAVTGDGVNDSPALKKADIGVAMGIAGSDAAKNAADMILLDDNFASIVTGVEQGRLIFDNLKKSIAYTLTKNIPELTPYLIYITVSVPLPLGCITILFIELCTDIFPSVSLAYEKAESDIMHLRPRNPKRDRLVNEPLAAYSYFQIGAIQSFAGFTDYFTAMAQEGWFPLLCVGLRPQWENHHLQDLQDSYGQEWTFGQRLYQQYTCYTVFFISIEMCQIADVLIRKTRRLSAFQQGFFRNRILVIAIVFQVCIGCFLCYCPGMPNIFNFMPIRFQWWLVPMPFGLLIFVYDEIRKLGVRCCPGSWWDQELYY
T1 sequence (P18434 whole entry partner): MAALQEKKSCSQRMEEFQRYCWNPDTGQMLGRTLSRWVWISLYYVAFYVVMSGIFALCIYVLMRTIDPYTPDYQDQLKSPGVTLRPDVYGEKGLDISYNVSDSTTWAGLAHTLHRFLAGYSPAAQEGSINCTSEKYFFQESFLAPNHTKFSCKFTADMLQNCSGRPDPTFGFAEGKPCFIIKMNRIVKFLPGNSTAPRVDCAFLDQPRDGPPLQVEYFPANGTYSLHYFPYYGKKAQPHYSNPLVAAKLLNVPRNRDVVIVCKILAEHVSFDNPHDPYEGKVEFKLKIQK

SMILES | IC50
Cc1nc2c(NC3CCOc4ccc(F)cc43)cc(C(=O)N(C)C)cn2c1C (single isomer, unassigned) [Example 12-2, 8-[(6-Fluoro-3,4-dihydro-2H-chromen-4-yl)amino]-N,N,2,3-tetramethylimidazo[1,2-a]pyridine-6-carboxamide] | 197 nM
Cc1nc2c(NC3CCOc4ccc(F)cc43)cc(C(=O)N(C)CCO)cn2c1C (single isomer, unassigned) [Example 13-2, 8-[(6-Fluoro-3,4-dihydro-2H-chromen-4-yl)amino]-N-(2-hydroxyethyl)-N,2,3-trimethylimidazol[1,2-a]pyridine-6-carboxamide] | 1100 nM
Cc1nc2c(NC3CCOc4ccc(F)cc43)cc(C(=O)N(C)CCO)cn2c1C (single isomer, unassigned) [Example 13-3, 8-[(6-Fluoro-3,4-dihydro-2H-chromen-4-yl)amino]-N-(2-hydroxyethyl)-N,2,3-trimethylimidazol[1,2-a]pyridine-6-carboxamide] | 170 nM
Cc1nc2c(NC3CCOc4c(F)cccc43)cc(C(=O)N(C)C)cn2c1C (single isomer, unassigned) [Example 14-2, 8-[(8-Fluoro-3,4-dihydro-2H-chromen-4-yl)amino]-N,N,2,3-tetramethylimidazo[1,2-a]pyridine-6-carboxamide] | 120 nM
Cc1nc2c(NC3CCOc4c(F)cccc43)cc(C(=O)N(C)C)cn2c1C (single isomer, unassigned) [Example 14-3, 8-[(8-Fluoro-3,4-dihydro-2H-chromen-4-yl)amino]-N,N,2,3-tetramethylimidazo[1,2-a]pyridine-6-carboxamide] | 170 nM
Cc1nc2c(NC3CCOc4c(F)cccc43)cc(C(=O)N(C)CCO)cn2c1C (single isomer, unassigned) [Example 15-2, 8-[(8-Fluoro-3,4-dihydro-2H-chromen-4-yl)amino]-N-(2-hydroxyethyl)-N,2,3-trimethylimidazol[1,2-a]pyridine-6-carboxamide] | 230 nM
Cc1nc2c(NC3CCOc4c(F)cccc43)cc(C(=O)N(C)CCO)cn2c1C (single isomer, unassigned) [Example 15-3, 8-[(8-Fluoro-3,4-dihydro-2H-chromen-4-yl)amino]-N-(2-hydroxyethyl)-N,2,3-trimethylimidazol[1,2-a]pyridine-6-carboxamide] | 370 nM
Cc1ccc2c(c1)OCCC2Nc1cc(C(=O)N(C)CCO)cn2c(C)c(C)nc12 (single isomer, unassigned) [Example 16-3, N-(2-Hydroxyethyl)-N,2,3-trimethyl-8-[(7-methyl-3,4-dihydro-2H-chromen-4-yl)amino]imidazo[1,2-a]pyridine-6-carboxamide] | 180 nM
Cc1nc2c(NC3CCOc4cccc(Cl)c43)cc(C(=O)N(C)C)cn2c1C (single isomer, unassigned) [Example 18-2, 8-[(5-Chloro-3,4-dihydro-2H-chromen-4-yl)amino]-N,N,2,3-tetramethylimidazo[1,2-a]pyridine-6-carboxamide] | 300 nM
Cc1nc2c(NC3CCOc4cccc(Cl)c43)cc(C(=O)N(C)C)cn2c1C (single isomer, unassigned) [Example 18-3, 8-[(5-Chloro-3,4-dihydro-2H-chromen-4-yl)amino]-N,N,2,3-tetramethylimidazo[1,2-a]pyridine-6-carboxamide] | 240 nM
Cc1nc2c(NC3CCOc4cccc(Cl)c43)cc(C(=O)N(C)CCO)cn2c1C (single isomer, unassigned) [Example 19-2, 8-[(5-Chloro-3,4-dihydro-2H-chromen-4-yl)amino]-N-(2-hydroxyethyl)-N,2,3-trimethylimidazo[1,2-a]pyridine-6-carboxamide] | 600 nM
Cc1nc2c(NC3CCOc4cccc(Cl)c43)cc(C(=O)N(C)CCO)cn2c1C (single isomer, unassigned) [Example 19-3, 8-[(5-Chloro-3,4-dihydro-2H-chromen-4-yl)amino]-N-(2-hydroxyethyl)-N,2,3-trimethylimidazo[1,2-a]pyridine-6-carboxamide] | 500 nM
Cc1nc2c(NC3COCc4ccccc43)cc(C(=O)N(C)CCO)cn2c1C (single isomer, unassigned; (+)) [Example 4-3, (+)-8-(3,4-Dihydro-1H-isochromen-4-ylamino)-N-(2-hydroxyethyl)-N,2,3-trimethylimidazo[1,2-a]pyridine-6-carboxamide] | 112 nM

The next compounds have a lower IC50 than those just listed; values first:

IC50 | SMILES
53.8 nM | Cc1nc2c(NC3CCOc4cccc(F)c43)cc(C(=O)N(C)CCO)cn2c1C (single isomer, unassigned) [Example 11-2, 8-[(5-Fluoro-3,4-dihydro-2H-chromen-4-yl)amino]-N-(2-hydroxyethyl)-N,2,3-trimethylimidazo[1,2-a]pyridine-6-carboxamide]
101 nM | Cc1nc2c(NC3CCOc4cccc(F)c43)cc(C(=O)N(C)CCO)cn2c1C (single isomer, unassigned) [Example 11-3, 8-[(5-Fluoro-3,4-dihydro-2H-chromen-4-yl)amino]-N-(2-hydroxyethyl)-N,2,3-trimethylimidazo[1,2-a]pyridine-6-carboxamide]
81.1 nM | Cc1nc2c(NC3CCOc4ccc(F)cc43)cc(C(=O)N(C)C)cn2c1C (single isomer, unassigned) [Example 12-3, 8-[(6-Fluoro-3,4-dihydro-2H-chromen-4-yl)amino]-N,N,2,3-tetramethylimidazo[1,2-a]pyridine-6-carboxamide]
100 nM | Cc1ccc2c(c1)OCCC2Nc1cc(C(=O)N(C)CCO)cn2c(C)c(C)nc12 (single isomer, unassigned) [Example 16-2, N-(2-Hydroxyethyl)-N,2,3-trimethyl-8-[(7-methyl-3,4-dihydro-2H-chromen-4-yl)amino]imidazo[1,2-a]pyridine-6-carboxamide]
43 nM | Cc1cccc2c1C(Nc1cc(C(=O)N(C)C)cn3c(C)c(C)nc13)CCO2 (single isomer, unassigned) [Example 17-2, N,N,2,3-Tetramethyl-8-[(5-methyl-3,4-dihydro-2H-chromen-4-yl)amino]imidazo[1,2-a]pyridine-6-carboxamide]
91 nM | Cc1cccc2c1C(Nc1cc(C(=O)N(C)C)cn3c(C)c(C)nc13)CCO2 (single isomer, unassigned) [Example 17-3, N,N,2,3-Tetramethyl-8-[(5-methyl-3,4-dihydro-2H-chromen-4-yl)amino]imidazo[1,2-a]pyridine-6-carboxamide]
27.8 nM | Cc1nc2c(NC3CCOc4ccccc43)cc(C(=O)N(C)C)cn2c1C (single isomer, unassigned; (+)) [Example 1-3, (+)-8-(3,4-Dihydro-2H-chromen-4-ylamino)-N,N,2,3-tetramethylimidazo[1,2-a]pyridine-6-carboxamide]
64 nM | Cc1nc2c(NC3CCOc4ccccc43)cc(C(=O)N(C)CCO)cn2c1C (single isomer, unassigned; (+)) [Example 2-3, (+)-8-(3,4-Dihydro-2H-chromen-4-ylamino)-N-(2-hydroxyethyl)-N,2,3-trimethylimidazo[1,2-a]pyridine-6-carboxamide]
67.6 nM | Cc1nc2c(NC3COCc4ccccc43)cc(C(=O)N(C)C)cn2c1C (single isomer, unassigned; (+)) [Example 3-3, (+)-8-(3,4-Dihydro-1H-isochromen-4-ylamino)-N,N,2,3-tetramethylimidazo[1,2-a]pyridine-6-carboxamide]
